Test results from patent publication CN116462616A, “炔酰胺类化合物及其应用” (Jinan University, priority 2022, dated 2023).

Experiments:
[1] = target: T1, bovine serum albumin [牛血清蛋白] (Bos taurus, UniProt P02769); assay: Covalent modification of amino acid residues of a pure protein (gel fluorescence after click chemistry); format: binding; details: 10.0 μM probe, 1 mg/mL protein, 37 °C, 3 h
[2] = test system: proteins of HepG2 cells [人源肝癌细胞HepG2]; assay: Covalent modification of protein amino acid residues in tumour cells (live-cell labelling, gel fluorescence); format: cell-based, human; details: HepG2, 50 μM probe, 37 °C, 3 h
[3] = target: T1, bovine serum albumin [牛血清蛋白]; assay: Selective modification of acidic amino acid residues of a pure protein (biological mass spectrometry); format: binding; details: 100 μM, 37 °C, 0.5 h
HepG2 cells [HepG2细胞] = assay: Selective modification of acidic amino acid residues in cells (biological mass spectrometry); format: cell-based, human; details: 100 μM, 37 °C, 8 h
ALDH1 = target: T2, ALDH1 (Homo sapiens, UniProt P00352); assay: Pull-down and western blot, ALDH1; format: binding; details: 50 μM, HepG2/H3255 cells, 37 °C, 5 h
T2 construct: 50μM分子探针YN-1和YN-4与HepG2/H3255细胞于37℃孵育5h; endogenous in cells; host or cells: HepG2/H3255
T2 sequence (P00352 1-501): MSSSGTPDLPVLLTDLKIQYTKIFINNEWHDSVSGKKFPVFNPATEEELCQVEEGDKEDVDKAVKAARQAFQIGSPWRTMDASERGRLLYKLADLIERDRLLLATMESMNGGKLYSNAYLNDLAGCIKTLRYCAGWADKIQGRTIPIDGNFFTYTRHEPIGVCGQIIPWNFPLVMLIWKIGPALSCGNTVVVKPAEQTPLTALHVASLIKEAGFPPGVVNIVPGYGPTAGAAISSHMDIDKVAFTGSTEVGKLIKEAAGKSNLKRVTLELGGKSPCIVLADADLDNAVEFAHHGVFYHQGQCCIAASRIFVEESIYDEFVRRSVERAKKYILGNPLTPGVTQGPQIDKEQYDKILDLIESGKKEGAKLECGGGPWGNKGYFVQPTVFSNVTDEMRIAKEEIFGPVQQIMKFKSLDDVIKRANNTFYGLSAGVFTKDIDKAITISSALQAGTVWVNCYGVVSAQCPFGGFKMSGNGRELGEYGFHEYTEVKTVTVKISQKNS

GAPDH = target: T3, GAPDH (Homo sapiens, UniProt P04406); assay: Pull-down and western blot, GAPDH; format: binding; details: 50 μM, HepG2/H3255 cells, 37 °C, 5 h
T3 construct: 50μM分子探针YN-1和YN-4与HepG2/H3255细胞于37℃孵育5h; endogenous in cells; host or cells: HepG2/H3255
T3 sequence (P04406 whole entry): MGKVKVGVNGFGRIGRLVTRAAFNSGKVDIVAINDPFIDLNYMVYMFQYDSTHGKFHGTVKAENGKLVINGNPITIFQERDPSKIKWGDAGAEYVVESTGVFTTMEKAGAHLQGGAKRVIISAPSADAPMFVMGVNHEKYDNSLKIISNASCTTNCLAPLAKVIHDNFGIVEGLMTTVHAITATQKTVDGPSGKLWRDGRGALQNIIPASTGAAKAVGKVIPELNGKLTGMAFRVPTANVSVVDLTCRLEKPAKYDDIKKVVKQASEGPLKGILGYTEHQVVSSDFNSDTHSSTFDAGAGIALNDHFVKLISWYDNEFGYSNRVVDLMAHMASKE

MEK2 = target: T4, MEK2 (Homo sapiens, UniProt P36507); assay: Pull-down and western blot, MEK2; format: binding; details: 50 μM, HepG2/H3255 cells, 37 °C, 5 h
T4 construct: 50μM分子探针YN-1和YN-4与HepG2/H3255细胞于37℃孵育5h; endogenous in cells; host or cells: HepG2/H3255
T4 sequence (P36507 whole entry): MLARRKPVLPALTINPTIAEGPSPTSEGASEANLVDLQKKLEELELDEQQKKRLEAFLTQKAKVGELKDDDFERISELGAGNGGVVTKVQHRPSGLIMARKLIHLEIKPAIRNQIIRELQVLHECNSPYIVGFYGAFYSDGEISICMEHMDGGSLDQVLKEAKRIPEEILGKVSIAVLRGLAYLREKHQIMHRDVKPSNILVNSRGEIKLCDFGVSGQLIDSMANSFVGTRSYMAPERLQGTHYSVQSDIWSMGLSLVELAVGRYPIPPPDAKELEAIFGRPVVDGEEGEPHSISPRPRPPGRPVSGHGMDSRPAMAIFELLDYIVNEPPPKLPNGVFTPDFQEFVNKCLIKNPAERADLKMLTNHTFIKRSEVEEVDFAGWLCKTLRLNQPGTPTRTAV

ECH1 = target: T5, ECH1 (Homo sapiens, UniProt Q13011); assay: Pull-down and western blot, ECH1; format: binding; details: 50 μM, HepG2/H3255 cells, 37 °C, 5 h
T5 construct: 50μM分子探针YN-1和YN-4与HepG2/H3255细胞于37℃孵育5h; endogenous in cells; host or cells: HepG2/H3255
T5 sequence (Q13011 34-328): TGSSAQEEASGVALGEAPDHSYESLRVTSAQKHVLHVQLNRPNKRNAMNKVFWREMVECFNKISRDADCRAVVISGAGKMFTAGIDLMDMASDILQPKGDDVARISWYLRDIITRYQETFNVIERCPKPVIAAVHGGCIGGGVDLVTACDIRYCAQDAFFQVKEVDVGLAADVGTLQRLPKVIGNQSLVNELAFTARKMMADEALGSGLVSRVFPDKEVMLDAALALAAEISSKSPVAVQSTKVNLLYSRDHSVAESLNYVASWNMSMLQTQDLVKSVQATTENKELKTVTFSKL

T1 sequence (P02769 25-607): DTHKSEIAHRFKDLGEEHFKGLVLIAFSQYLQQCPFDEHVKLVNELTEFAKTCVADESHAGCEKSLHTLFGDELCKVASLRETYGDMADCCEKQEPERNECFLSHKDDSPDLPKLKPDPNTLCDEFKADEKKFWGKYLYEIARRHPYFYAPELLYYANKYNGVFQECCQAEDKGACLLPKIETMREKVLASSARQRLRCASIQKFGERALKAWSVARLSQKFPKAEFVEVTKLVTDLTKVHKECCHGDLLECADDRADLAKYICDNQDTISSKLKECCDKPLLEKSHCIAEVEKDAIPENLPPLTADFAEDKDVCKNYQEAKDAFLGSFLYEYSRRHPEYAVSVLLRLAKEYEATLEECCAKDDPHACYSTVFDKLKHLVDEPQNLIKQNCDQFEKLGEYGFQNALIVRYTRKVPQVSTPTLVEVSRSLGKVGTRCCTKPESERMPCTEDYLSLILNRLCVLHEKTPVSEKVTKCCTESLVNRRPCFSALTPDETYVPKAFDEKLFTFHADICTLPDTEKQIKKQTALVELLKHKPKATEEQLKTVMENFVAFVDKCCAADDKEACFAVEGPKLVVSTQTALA

Compound	covalent labelling of bovine serum albumin [1]	covalent labelling of proteins at live-cell level [2]	selective modification of acidic amino acid residues (aspartic acid and glutamic acid) [3]	selective modification of acidic amino acid residues (aspartic acid and glutamic acid) (HepG2 cells [HepG2细胞])	targeted binding to ALDH1 (ALDH1)	targeted binding to GAPDH (GAPDH)	targeted binding to MEK2 (MEK2)	targeted binding to ECH1 (ECH1)
C#Cc1ccc(S(=O)(=O)N(C)C#C)cc1 [YN-1]	能够共价标记牛血清蛋白	能够在活细胞水平共价标记蛋白	可选择性修饰酸性氨基酸残基天冬氨酸残基及谷氨酸残基	可选择性修饰酸性氨基酸残基天冬氨酸残基及谷氨酸残基	能靶向结合	能靶向结合	能靶向结合	能靶向结合
C#Cc1ccc(C#CN(C)S(=O)(=O)c2ccc(C)cc2)cc1 [YN-2]	能够共价标记牛血清蛋白	能够在活细胞水平共价标记蛋白						
C#Cc1ccc(OCc2ccc(S(=O)(=O)N(C)C#C)cc2)cc1 [YN-3]	能够共价标记牛血清蛋白	能够在活细胞水平共价标记蛋白						
